Results reported in patent publication US20100260680A1, “NOVEL BONE MASS INCREASING AGENT” (ORIENTAL YEAST CO., LTD., priority 2007, published 2010).
Bridges are numbered along the chain shown (N, C = ends). Where no end group is shown, it is not given here.

Key:
[1] = tested on: Human mesenchymal stem cells; test: ALP activity determination in human mesenchymal stem cells; assay type: cell-based; conditions: Day 7, differentiation medium and maintenance medium
Protocol: Human mesenchymal stem cells were seeded on a 96-well plate (1×10^3 cells/well) (Nunc) and a 48-well plate (2.4×10^3 cells/well) (IWAKI). After 24 hours, the culture supernatant was removed from each plate and an osteoblast differentiation induction medium (Lonza) was introduced thereonto. The medium was replaced with new medium every 3 or 4 days.
At such time, peptide D was added at a concentration of 100 μM (group treated with peptide D). As a negative control, the control peptide was added at the same concentration.
(§1) Seven days after differentiation, the culture supernatant was removed from each plate and the cells were fixed with an acetone/ethanol solution. The ALP activity was determined using p-nitrophenyl phosphate as a substrate. Specifically, a carbonate buffer (5 mM MgCl2, 50 mM NaHCO3) containing p-nitrophenyl phosphate (Nacalai) (1 mg/mL) was added to each well (100 μL/well), followed by incubation at 37° C. Then, the OD value at 405 nm was determined with the use of a microplate reader (BMG Labtech) for each well.
Human mesenchymal stem cells (hMSC; Lonza) were seeded on a 96-well plate (Nunc) (2×10^3 cells/well). After cell adhesion had taken place, the medium was replaced with a differentiation medium prepared by adding 100 nM dexamethasone (SIGMA), 10 mM BGP(SIGMA), and 50 μg/mL ascorbic acid to a dedicated maintenance medium (Lonza). […]

mouse osteoblasts = test: ALP activity determination in mouse osteoblasts; assay type: cell-based; conditions: 300 μM; differentiation medium; Day 7
Protocol: as §1
For experiments, a goat polyclonal mRANKL antibody (R&D, Saint Cruz), monoclonal mRANKL antibodies ((A): clone 88227 (R&D); (B): clone 12A668) (ALEXIS), and synthetic peptide D were used. As negative controls, goat IgG (ZYMED) and a control peptide were used. Synthetic peptide D and the control peptide used were the same as those used in Example 1. […] ALP activity determination was carried out as in Example 1.
Newborn mouse calvarias were immersed in an enzyme solution (0.1% collagenase (Wako)+0.2% Dispase (GODO SHUSEI CO., LTD.)), followed by shaking in a thermostatic bath at 37° C. for 5 minutes. The initial floating cell fraction was removed therefrom and a new enzyme solution (10 mL) was added thereto, followed by another instance of shaking in a thermostatic bath at 37° C. for 10 minutes. The above operations were repeated 4 times. […]

GSK3β = test: Western blotting of GSK3β phosphorylation in MC3T3-E1 cells; assay type: cell-based, mouse; conditions: 1 and 3 hours after the addition; 200 μM peptide D or 200 ng/ml BMP-2
Protocol: (§2) MC3T3-E1 cells mixed with 10% FBS+αMEM (SIGMA) were seeded on a 6-well plate (7.5×10^4 cells/well). […] The medium was removed at the respective time points shown in the relevant figures. PBS was added to the cells, and the cells were collected with a scraper (Falcon). A cell pellet was obtained via centrifugation at 1200 rpm for 5 min at 4° C. RIPA buffer (100 μL) was added to the collected pellet, for dissolution of the cellular membrane. Further, the resultant was centrifuged under conditions of 14500 rpm for 25 min at 4° C. The supernatant was collected as a cell extract. A portion of the cell extract was used for quantification of the protein concentration with the use of a BCA protein assay kit (PIERCE). For SDS-PAGE, a sample buffer in an amount that was ¼ that of the cell extract (Fermentas) was added thereto, followed by heating at 95° C. for 5 min. The prepared sample was applied in an amount of 7.5 or 10 μg to 10% polyacrylamide gel (BioRad), followed by electrophoresis at 170 V for 1 hour. After electrophoresis, the electrophoresed sample was transferred to a PVDF membrane (Millipore) at 80 mA for 40 min. The membrane was shaken in a blocking solution (Nacalai) at room temperature for 1 hour and then a primary antibody was added thereto, followed by shaking at room temperature for 1 hour at 4° C. for 12 hours. […]

Smad1/5/8 = test: Western blotting of Smad1/5/8 phosphorylation in MC3T3-E1 cells; assay type: cell-based, mouse; conditions: up to 3 hours after the addition; 200 μM peptide D or 200 ng/ml BMP-2
Protocol: as §2

peptide D: cyclic peptide of SEQ ID NO: 7, 9 amino acids, two cysteine residues bound via a disulfide bond; binds to RANKL (YCWSQYLCY; disulfide 2-8 (inferred))
ALP activity ([1]; 300 μM): significant increase in ALP activity | ALP activity ([1]; peptide D 100 μM): significantly increased | ALP activation (mouse osteoblasts): caused an increase in the degree of ALP activation | phosphorylation of GSK3β (GSK3β): confirmed to be induced | phosphorylation of Smad1/5/8 (Smad1/5/8): not induced
